Assay results published in ChEMBL document CHEMBL1201862, “PubChem BioAssay data set” (2004).
Calls of active or inactive are those of the source.

Assays:
[1] = target: T1, Short transient receptor potential channel 4 (Mus musculus, UniProt Q9QUQ5); assay: SAR Analysis for the identification of selective inhibits of the transient receptor potential cation channel C4 (TRPC4): Automated Electrophysiology. [Related pubchem assays (depositor defined):AID2256]; type: functional
T1 sequence (Q9QUQ5 whole entry): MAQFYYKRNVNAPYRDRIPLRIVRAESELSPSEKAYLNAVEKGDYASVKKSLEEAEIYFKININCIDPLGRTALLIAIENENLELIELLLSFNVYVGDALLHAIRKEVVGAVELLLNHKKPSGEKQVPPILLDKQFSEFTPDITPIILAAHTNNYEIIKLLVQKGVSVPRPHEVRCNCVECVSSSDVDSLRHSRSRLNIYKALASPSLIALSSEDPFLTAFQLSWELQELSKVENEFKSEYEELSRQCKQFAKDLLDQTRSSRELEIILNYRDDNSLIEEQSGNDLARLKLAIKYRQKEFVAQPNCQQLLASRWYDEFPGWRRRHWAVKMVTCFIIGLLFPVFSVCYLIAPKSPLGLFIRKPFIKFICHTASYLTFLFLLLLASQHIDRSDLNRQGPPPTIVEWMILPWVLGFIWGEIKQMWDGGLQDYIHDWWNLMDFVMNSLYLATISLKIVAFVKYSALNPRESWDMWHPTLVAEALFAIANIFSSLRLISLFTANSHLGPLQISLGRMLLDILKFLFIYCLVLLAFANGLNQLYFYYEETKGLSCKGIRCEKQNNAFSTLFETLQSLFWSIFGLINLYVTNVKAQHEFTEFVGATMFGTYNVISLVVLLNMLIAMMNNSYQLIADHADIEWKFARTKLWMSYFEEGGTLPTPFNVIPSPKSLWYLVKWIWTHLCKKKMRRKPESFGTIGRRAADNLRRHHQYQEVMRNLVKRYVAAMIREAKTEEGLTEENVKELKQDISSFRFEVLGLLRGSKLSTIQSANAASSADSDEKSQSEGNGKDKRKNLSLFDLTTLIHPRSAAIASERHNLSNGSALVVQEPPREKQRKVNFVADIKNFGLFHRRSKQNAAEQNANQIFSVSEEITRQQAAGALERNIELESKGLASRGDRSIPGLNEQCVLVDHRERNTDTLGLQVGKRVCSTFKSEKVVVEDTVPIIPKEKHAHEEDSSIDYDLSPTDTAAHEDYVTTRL

[2] = target: T1, Short transient receptor potential channel 4; assay: TRPC4 inhibitor concentration-response, dose response, cell-based, HEK293 TRPC4/mu-opioid, DAMGO stimulus, Fluo-4 (AID 492994); type: functional
CAAX prenyl protease 2 = target: T2, CAAX prenyl protease 2 (Homo sapiens, UniProt Q9Y256); assay: human Rce1 protease inhibitors, dose response, biochemical, yeast membranes, quenched-peptide fluorescence, cherry-pick (AID 588849)
T2 sequence (Q9Y256 whole entry): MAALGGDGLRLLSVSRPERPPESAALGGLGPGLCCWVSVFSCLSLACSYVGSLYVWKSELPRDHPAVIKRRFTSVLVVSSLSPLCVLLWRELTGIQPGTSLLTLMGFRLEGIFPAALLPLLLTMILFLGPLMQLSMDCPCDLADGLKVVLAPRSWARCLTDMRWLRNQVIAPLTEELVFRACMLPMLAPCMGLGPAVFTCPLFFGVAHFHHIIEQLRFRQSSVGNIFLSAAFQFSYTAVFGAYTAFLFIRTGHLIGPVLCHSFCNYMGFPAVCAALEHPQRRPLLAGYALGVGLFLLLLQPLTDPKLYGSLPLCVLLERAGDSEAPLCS

CAAX prenyl protease 1 = CAAX prenyl protease 1 (Saccharomyces cerevisiae S288c, UniProt P47154); assay: Ste24 protease inhibitors, dose response, biochemical, S. cerevisiae, plate reader, cherry-pick (AID 488815)
Chain of CAAX prenyl protease 1 (P47154 whole entry): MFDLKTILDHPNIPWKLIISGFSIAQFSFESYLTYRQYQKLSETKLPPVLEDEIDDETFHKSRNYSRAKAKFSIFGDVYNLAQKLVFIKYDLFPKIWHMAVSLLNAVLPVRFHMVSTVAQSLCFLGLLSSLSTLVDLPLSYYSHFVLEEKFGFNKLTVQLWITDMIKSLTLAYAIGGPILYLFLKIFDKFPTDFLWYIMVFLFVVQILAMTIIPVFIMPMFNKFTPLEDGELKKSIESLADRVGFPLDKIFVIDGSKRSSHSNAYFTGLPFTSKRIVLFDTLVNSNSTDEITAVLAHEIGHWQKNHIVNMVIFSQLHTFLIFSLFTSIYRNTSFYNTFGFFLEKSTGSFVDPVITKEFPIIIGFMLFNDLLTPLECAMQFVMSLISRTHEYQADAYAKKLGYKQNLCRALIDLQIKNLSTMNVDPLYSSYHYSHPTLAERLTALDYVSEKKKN

Trypsin = Trypsin (Sus scrofa, UniProt P00761); assay: porcine trypsin inhibitors, dose response, selectivity assay for Rce1 protease inhibitor project, biochemical, quenched peptide fluorescence, cherry-pick (AID 488789)
Chain of Trypsin (P00761 whole entry): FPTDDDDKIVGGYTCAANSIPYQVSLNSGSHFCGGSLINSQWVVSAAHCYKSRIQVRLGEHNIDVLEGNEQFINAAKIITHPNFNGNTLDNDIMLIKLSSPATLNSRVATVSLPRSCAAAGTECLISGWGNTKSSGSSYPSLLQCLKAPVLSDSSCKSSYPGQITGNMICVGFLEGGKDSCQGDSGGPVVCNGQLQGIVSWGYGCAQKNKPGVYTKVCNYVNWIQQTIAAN

[3] = target: Voltage-gated inwardly rectifying potassium channel KCNH2 (Homo sapiens, UniProt Q12809); settings: Potency;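 further: confirmatory quantitative high-throughput screen measuring inhibition of hERG channel activity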
Chain of Voltage-gated inwardly rectifying potassium channel KCNH2 (Q12809 whole entry): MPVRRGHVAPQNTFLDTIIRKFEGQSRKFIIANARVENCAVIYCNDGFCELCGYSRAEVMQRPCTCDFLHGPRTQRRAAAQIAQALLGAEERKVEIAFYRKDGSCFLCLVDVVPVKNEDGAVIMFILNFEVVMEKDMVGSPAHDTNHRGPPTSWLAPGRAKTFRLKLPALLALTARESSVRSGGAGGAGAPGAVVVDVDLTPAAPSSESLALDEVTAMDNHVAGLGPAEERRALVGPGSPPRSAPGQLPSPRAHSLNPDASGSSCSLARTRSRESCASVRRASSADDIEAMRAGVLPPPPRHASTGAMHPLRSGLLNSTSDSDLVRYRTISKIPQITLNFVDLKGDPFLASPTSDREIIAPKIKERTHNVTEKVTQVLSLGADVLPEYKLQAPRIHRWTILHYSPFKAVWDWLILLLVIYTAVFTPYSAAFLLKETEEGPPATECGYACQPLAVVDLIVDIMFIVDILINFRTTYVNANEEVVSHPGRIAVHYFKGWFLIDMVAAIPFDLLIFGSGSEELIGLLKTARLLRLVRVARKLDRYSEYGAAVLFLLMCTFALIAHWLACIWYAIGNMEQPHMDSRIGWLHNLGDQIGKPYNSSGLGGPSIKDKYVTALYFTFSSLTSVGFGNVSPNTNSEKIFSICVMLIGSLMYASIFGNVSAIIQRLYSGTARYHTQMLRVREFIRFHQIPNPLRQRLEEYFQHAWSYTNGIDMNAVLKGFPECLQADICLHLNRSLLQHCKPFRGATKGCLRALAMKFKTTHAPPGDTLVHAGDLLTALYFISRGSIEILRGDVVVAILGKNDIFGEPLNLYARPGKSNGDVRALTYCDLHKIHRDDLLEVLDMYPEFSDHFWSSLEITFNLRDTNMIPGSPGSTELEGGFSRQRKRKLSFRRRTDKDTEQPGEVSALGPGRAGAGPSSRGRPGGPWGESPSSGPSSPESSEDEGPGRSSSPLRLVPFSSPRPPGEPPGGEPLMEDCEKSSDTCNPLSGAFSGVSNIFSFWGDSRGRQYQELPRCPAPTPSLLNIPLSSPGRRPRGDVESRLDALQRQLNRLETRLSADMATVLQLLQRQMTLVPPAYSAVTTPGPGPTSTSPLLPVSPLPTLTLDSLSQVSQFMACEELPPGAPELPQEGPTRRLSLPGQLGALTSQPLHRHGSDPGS

[4] = target: T3, Corticotropin-releasing factor receptor 2/Corticotropin-releasing factor-binding protein (Homo sapiens, UniProt P24387+Q13324); assay: Dose Response confirmation of uHTS hits for small molecule antagonists of the CRF-binding protein and CRF-R2 receptor complex.; type: functional; settings: read-out: IC50_Mean
T3 sequence (Q13324 whole entry): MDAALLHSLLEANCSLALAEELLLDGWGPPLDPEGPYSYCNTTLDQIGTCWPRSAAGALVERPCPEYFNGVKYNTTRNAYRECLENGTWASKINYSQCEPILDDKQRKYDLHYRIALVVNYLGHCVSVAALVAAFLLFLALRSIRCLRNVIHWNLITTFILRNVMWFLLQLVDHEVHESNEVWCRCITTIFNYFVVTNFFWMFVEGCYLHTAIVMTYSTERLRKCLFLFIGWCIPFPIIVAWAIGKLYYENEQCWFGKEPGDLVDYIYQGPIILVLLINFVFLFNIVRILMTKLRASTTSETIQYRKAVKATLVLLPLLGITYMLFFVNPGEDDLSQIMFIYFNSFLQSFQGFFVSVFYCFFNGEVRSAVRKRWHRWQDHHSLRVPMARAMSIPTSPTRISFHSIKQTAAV
T3 sequence (P24387 whole entry): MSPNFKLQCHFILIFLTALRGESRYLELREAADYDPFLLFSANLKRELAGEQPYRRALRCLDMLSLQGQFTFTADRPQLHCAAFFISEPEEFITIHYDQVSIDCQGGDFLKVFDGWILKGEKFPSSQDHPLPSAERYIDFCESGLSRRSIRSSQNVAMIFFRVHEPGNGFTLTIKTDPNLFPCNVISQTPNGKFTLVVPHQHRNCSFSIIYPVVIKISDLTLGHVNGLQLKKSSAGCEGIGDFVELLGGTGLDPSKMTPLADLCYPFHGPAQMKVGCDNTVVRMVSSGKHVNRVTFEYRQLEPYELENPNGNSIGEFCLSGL

[5] = CRF-BP/CRF-R2 complex antagonists, dose response, cell-based, uHTS hits, 384-well (AID 651639); type: functional, Homo sapiens; settings: read-out: IC50_Mean
[6] = target: T3, Corticotropin-releasing factor receptor 2/Corticotropin-releasing factor-binding protein; assay: activators of CRF receptor 2 with binding protein – uHTS hits, confirmation (AID 602473); type: functional; settings: read-out: EC50_Mean
HEK293 [7] = assay: cells; type: functional, cell-based; settings: Homo sapiens
HEK293 [8] = assay: NOD1 signaling inhibitors, primary screen, cell-based, luminescence, uHTS (AID 1578); type: functional; settings: Homo sapiens
[9] = target: Nucleotide-binding oligomerization domain-containing protein 1 (Homo sapiens, UniProt Q9Y239); assay: NOD1 signaling inhibitors, SAR follow-up, revised (AID 2333); type: functional
Chain of Nucleotide-binding oligomerization domain-containing protein 1 (Q9Y239 whole entry, the tested form may be a part): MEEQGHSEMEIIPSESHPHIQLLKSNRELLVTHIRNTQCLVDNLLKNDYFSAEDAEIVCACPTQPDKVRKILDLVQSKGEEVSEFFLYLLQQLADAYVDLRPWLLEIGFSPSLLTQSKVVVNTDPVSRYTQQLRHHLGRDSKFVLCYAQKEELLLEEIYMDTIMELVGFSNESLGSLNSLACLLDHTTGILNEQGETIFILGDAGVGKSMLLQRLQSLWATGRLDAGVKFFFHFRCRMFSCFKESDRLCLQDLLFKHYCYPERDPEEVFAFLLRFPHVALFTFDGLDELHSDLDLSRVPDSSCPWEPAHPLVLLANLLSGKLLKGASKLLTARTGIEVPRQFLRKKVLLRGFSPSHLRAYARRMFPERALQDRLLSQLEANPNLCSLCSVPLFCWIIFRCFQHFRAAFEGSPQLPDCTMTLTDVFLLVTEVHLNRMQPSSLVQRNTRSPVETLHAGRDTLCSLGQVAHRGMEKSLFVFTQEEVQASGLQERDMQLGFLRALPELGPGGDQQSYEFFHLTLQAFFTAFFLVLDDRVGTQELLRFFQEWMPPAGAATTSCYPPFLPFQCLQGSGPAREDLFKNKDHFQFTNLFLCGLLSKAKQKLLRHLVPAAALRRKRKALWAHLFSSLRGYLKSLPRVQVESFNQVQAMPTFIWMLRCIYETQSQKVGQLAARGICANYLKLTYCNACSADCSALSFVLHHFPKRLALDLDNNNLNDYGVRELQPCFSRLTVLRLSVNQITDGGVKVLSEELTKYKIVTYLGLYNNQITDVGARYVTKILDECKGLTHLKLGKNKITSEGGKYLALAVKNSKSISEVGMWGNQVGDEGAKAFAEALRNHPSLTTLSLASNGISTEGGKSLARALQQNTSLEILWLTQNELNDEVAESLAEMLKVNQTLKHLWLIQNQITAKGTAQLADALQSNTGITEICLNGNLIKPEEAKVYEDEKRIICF

HEK293 [10] = assay: cells; settings: Homo sapiens
HEK293 [11] = assay: cells; type: functional, cell-based; settings: Homo sapiens; remark: listed apart in the source
HEK293 [12] = assay: NOD2 signaling inhibitors in MDP-stimulated cells, cell-based, uHTS, luminescence (AID 2001); type: functional; settings: Homo sapiens

Cc1cc(N2CCOCC2)nc2ccccc12
IC50 [1]: 140 µM (inactive)
IC50 [2]: 39 µM (active)

COc1ccc(OC)c(/C=N/NC(=O)CSc2cc(C)nc3c(OC)cccc23)c1
AC50 (CAAX prenyl protease 2): 10.7 µM (active)
AC50 (CAAX prenyl protease 1): 6.88 µM (active)
AC50 (Trypsin): 34.3 µM (active)

O=C(OCCN1CCCCC1)c1c[nH]c2ccccc12
AC50 [3]: 20 µM (inconclusive)

O=C(Nc1nc2c(F)cc(F)cc2s1)c1ccc([N+](=O)[O-])o1
IC50 [4]: 4.95 µM (active)
IC50 [5]: > 20 µM (inactive)
EC50 [6]: > 53 µM (inactive)
IC50 (HEK293 [7]): > 20 µM (inactive)
EC50 (HEK293 [8]): 12 µM (active)
IC50 [9]: 7.18 µM (active)
IC50 (HEK293 [10]): > 20 µM (inactive)
IC50 (HEK293 [11]): > 20 µM (inactive)
IC50 (HEK293 [12]): 15.5 µM (inactive)
